Values after ≈ are worked out from the molar mass of the structure shown. Values joined by “and” are separate entries in the source; they are usually repeats but may differ in a detail not shown here. Identical values can stand only once. Like-named read-outs stand apart in the source and are kept apart here. Marks after values point to notes of the source that are not given here. Each block holds one compound with its values, some of them ahead of it.
What was measured:
[1] = cited from earlier work
[2] = delivery of 5-FU, previous data of Mollgaard et al; type: in vitro ADME, human
Method: The diffusion cell data previously reported for the delivery of 5-FU from PG (Mollgaard et al, supra), were analyzed and a flux of 7.8×10^-4 mg/cm^2.hr with a lag time of 17 hr was calculated. […] […]. […] Thus, the present study of delivery of 5-FU appears to be consistent with the observations of Mollgaard et al, supra.
. When the data for the diffusion of the best prodrug of 5-FU (1-butyryloxymethylderivative) described in Mollgaard et al, supra, were used to calculate a flux for that prodrug, a flux of 17.2×10^-4 mg/cm^2.hr was obtained. […]

[3] = cited from earlier work; remark: listed apart in the source
[4] = delivery of theophylline, previous study of Sloan et al; conditions: from flux of previous study
[5] = hydrolysis / stability of adenine and cytosine adducts followed by UV (Example 1); type: physicochemical; conditions: water, dilute aqueous solution, about 1×10^-4 mole/l, read-out: t1/2 of hydrolysis (converted)
Excerpt: The methanol UV spectra of the adducts of cytosine and adenine were stable for up to 2 hr. The water UV spectrum of the mono-adduct of adenine 1b was essentially identical with adenine itself under the same conditions. […] The rates of hydrolysis of three of the adducts (1d, 1e and 2d) were followed by UV at about 1×10^-4 mole/1 by following the decrease in intensity of their respective UV max with time. Spectra were monitored until stable spectra were produced which in all cases were essentially identical with the parent purine or pyrimidine. Plots of At-At.infin. versus time were used to determine t 1/2. The hydrolyses of the adducts were also followed by ^1 H NMR spectroscopy. Solutions (DMSO-d6) of the adducts at about 30 mg/ml, were diluted with D2 O in a dropwise fashion until a 1:1 ratio of the two solvents was reached. Integrations (5 times) of the spectra were taken after each addition of D2 O. Comparison of the average of the integrations of the N--CH2 --N absorptions and the integrations of the C2 --H, C8 --H, C5 --H or C6 --H absorptions was used to quantitate the amount of decomposition.

[6] = lipid and aqueous solubilities of 5-FC and its derivatives; type: physicochemical; conditions: for solubility at 48 h: isopropyl myristate, organic solvent or mixture, read-out: Solubility, IPM
[7] = water, equilibrated three hours, 180 min; cited from earlier work
physchem = conditions: organic solvent or mixture
[8] = flux of theophylline in PG after first application of 5-IDC or prodrug (second application); type: in vitro ADME, hairless mice
Method: A suspension of theophylline in PG (Th/PG; 0.5 ml, 0.4M) was then applied to each diffusion cell. […] This phase of the diffusion cell experiment is labelled the second application.
The slopes for each phase of the plotted lines were obtained by linear regression analysis; the slopes were then divided by the surface area of the diffusion cells (4.9 cm^2) to obtain a value for flux (J) in mg/cm^2 /h. The reported fluxes are the average flux for the three cells.

[9] = solubility of 5-iodo-2'-deoxycytidine in various vehicles; type: physicochemical; conditions: for solubility: organic solvent or mixture
[10] = lipid and aqueous solubilities of 5-IDC and its prodrugs; type: physicochemical; conditions: for Solubility, IPM / solubility at 48 h: isopropyl myristate; for solubility: pH 5.5, water, apparent; for solubility at 48 h: organic solvent or mixture, read-out: Solubility, IPM
Method: The approximate aqueous solubilities were determined by the addition of 100 mg of solid to 1 ml distilled water (pH 5.5). Water was added until all the solid dissolved.
The lipid solubilities of 5-iodo-2'-deoxycytidine and its N-Mannich base prodrugs were determined in isopropyl myristate. Three suspensions of the drug or prodrugs were stirred for 48 hours and then filtered. The filtrates were then diluted with either methanol, for the parent drug or dry acetonitrile, for the N-Mannich base prodrugs. The concentration of compound in solution was determined by monitoring the UV absorption at 294 nm (ε=5.79×10^3 1/mole) for 5-IDC, 333 nm (ε=2.46×10^4) for the formamidine derivative and 296 nm for the derivatives. The aqueous solubilities were obtained as described above.

[11] = phosphate buffer, pH 7.1
[12] = skins leached 120 hours, no methanol wash
Method: After this last sampling of the receptor phase (amount left in skin), the receptor phase was again changed. […] The cumulative amount of theophylline in the receptor phase was calculated as described above. This phase of the diffusion cell studies is termed the second application.
Several control studies were also performed. […] This was the baseline for the second application. […] Theophylline in PG was then applied to assess the effect of the methanol wash (used to remove the remaining donor phase from the first application) on the skin's permeability. […] The receptor phase was changed and a suspension of Th in PG was added as before.
The slopes for each phase of the plotted lines were obtained by linear regression analysis (r>0.990); the slopes were then divided by the surface area of the diffusion cells (4.9 cm^2) to obtain a value for flux (J) in mg/cm^2 /h. The reported fluxes are the average flux of the three diffusion cells.

[13] = solubilities of prodrugs and parent drugs in selected solvents (Example 8); conditions: Solubility, suspensions sonicated for 3 hr
[14] = cited from earlier work; remark: listed apart in the source
[15] = hydrolysis of 5-IDC derivatives in pH 7.1 buffer; type: physicochemical; conditions: 24°, read-out: half-life (t1/2) of hydrolysis
Method: The hydrolysis of the prodrugs in pH 7.1 buffer (0.05M,=0.15) was monitored by UV spectroscopy at 294 nm, by measuring the appearance of 5-IDC. A plot of log (At -A.infin.) versus time was linear so first-order reaction kinetics were assumed. Each hydrolysis was performed in triplicate at a constant temperature of 24.0°±0.1° and the half-lives and rates of hydrolysis were obtained using the Guggenheim method. Stock solutions of the prodrugs were made in dry acetonitrile, and 0.1 ml of the solution was added to 3 ml of buffer in a cuvette.

times more effective than theophylline in delivering theophylline [4]: about 6.5 times
Compound: Cn1c(=O)c2c(ncn2CO)n(C)c1=O [7-(hydroxymethyl)theophylline]
flux ([3]; not told): 11.1×10^-2 mg/cm^2.hr

half-life at 100 µM [5]: ~5 min
Compound: c1nc(NCN2CCCCC2)c2ncn(CN3CCCCC3)c2n1 [Compound 1e, Bis-N^6,9-(1'-piperidinyl)methyladenine]

increase of flux of theophylline from PG ([8]; after 5-IDC): 1.3 times
X-intercept ([8]; first application in IPM): 0.6 h
Flux of theophylline from PG after first application ([8]; first application in IPM, Th/PG 0.4 M, ±SD): 246 (17) mg/cm^2 /h × 10^3
solubility ([9]; 1-octanol, read-out: Solubility of 5-IDC, mole fraction): 0.96 mM
solubility ([9]; 1-propanol, read-out: Solubility of 5-IDC, mole fraction): 6.09 mM
Solubility of 5-IDC, mole fraction ([9]; IPM): 0 mole fraction (× 10^3)
solubility ([9]; eg, read-out: Solubility of 5-IDC, mole fraction): 89.2 mM
solubility ([9]; ethylene glycol, EG, ±SD, read-out: Solubility of 5-IDC): 31.5 mg/mL
solubility ([9]; formamide, For, ±SD, read-out: Solubility of 5-IDC): 56.9 mg/mL
solubility ([9]; formamide, read-out: Solubility of 5-IDC, mole fraction): 161 mM
solubility ([9]; 1-octanol, ±SD, read-out: Solubility of 5-IDC): 0.34 mg/mL
solubility ([9]; 1-propanol, ±SD, read-out: Solubility of 5-IDC): 2.15 mg/mL
solubility ([9]; pg, read-out: Solubility of 5-IDC, mole fraction): 55.7 mM
solubility ([9]; propylene glycol, PG, ±SD, read-out: Solubility of 5-IDC): 19.7 mg/mL
X-intercept, initial phase (IPM): 5.0 h
X-intercept, steady-state (IPM): 14.0 h
duration of initial phase (IPM): 19 h
duration of steady-state delivery (IPM): 11 h
Solubility, IPM [10]: 0 M(× ^5)
Solubility, IPM ([10]; ±SD): 0 mg/ml(× 10^2)
solubility [10]: < 1000 µg/mL and < 2800 µM
Compound: Nc1nc(=O)n([C@H]2C[C@H](O)[C@@H](CO)O2)cc1I [Compound 5-IDC, 5-iodo-2'-deoxycytidine]
conversion of 5-IDC to 5-IDU (diffusion cells, HPLC): no conversion of 5-IDC to 5IDU was detected

Half-life of hydrolysis, cytosine derivatives [11]: 0.26(0.00) min
Compound: CCN(CC)CNc1ccn(CN(CC)CC)c(=O)n1 [Cytosine (Et), Bis-N^4,1-(diethylamino)methylcytosine]

solubility ([13]; isopropyl myristate, organic solvent or mixture, IPM): 0.0044 mg/mL (≈ 0.0338 mM)
solubility ([13]; propylene glycol, organic solvent or mixture, PG): 15.1 mg/mL (≈ 116 mM)
solubility ([13]; water): 26.2 mg/mL (≈ 201 mM)
theoretical 24 hr value for 5-FU diffused ([2]; PG, 24 hr, 4.9 cm^2, calculated from literature flux and lag): 0.015 mg
Compound: O=c1[nH]cc(F)c(=O)[nH]1 [VII, 5-Fluorouracil]
lag time ([1]; PG, calculated from literature data (Mollgaard et al)): 17 h
pKa [14]: 13.0

Second part, the compound before the results:

Compound: CCCC(=O)OCn1cc(F)c(=O)[nH]c1=O [1-butyryloxymethylderivative]
flux ([1]; not told): 17.2×10^-4 mg/cm^2.hr
times better than 5-FU in delivering 5-FU ([2]; from literature flux): 2.2 times

Compound: CCCC(=O)OCn1cnc2c1c(=O)n(C)c(=O)n2C [7-butyryloxymethyl)theophylline]
flux ([3]; previous study (Sloan et al), IPM): 7.25×10^-2 mg/cm^2.hr
times more effective than theophylline in delivering theophylline [4]: 4.2 times

Compound: c1nc(NCN2CCOCC2)c2ncn(CN3CCOCC3)c2n1 [Compound 1d, Bis-N^6,9-(4'-morpholinyl)methyladenine]
half-life at 100 µM [5]: ~30 min

Compound: O=c1nc(NCN2CCOCC2)ccn1CN1CCOCC1 [Compound 2d, Bis-N^4,1-(4'-morpholinyl)methylcytosine]
half-life at 100 µM [5]: ~180 min

Compound: Nc1nc(=O)[nH]cc1F [Compound 5-FC, 5-fluorocytosine]
solubility ([6]; distilled water (pH 5.5), approximate, decomposing): 7000 µg/mL and 50000 µM
solubility at 48 h [6]: 0.039 mM
solubility at 48 h ([6]; ±SD): 0.005 mg/mL
aqueous solubility, literature value [7]: 120 mM (≈ 15.5 mg/mL)
solubility (physchem; 1-octanol): 0.42 mg/mL (≈ 3.25 mM)
solubility (physchem; dmf): 3.52 mg/mL (≈ 27.3 mM)
solubility (physchem; ethylene glycol): 20 mg/mL (≈ 155 mM)
solubility (physchem; ethylene glycol:formamide (1:1)): 17.5 mg/mL (≈ 135 mM)
solubility (physchem; ethylene glycol:formamide (4:1)): 17.9 mg/mL (≈ 139 mM)
solubility (physchem; formamide): 13.7 mg/mL (≈ 106 mM)
solubility (physchem; ipm): 0.0045 mg/mL (≈ 0.0349 mM)
solubility (physchem; pg): 10.8 mg/mL (≈ 83.7 mM)

Compound: Cn1c(=O)c2[nH]cnc2n(C)c1=O [I, Theophylline]
flux ([3]; not told): 1.72±0.13×10^-2 mg/cm^2.hr
flux for Th/PG, baseline [12]: 1.41±0.09×10^-3 mg/cm2 /h

Compound: O=c1nc(NCN2CCOCC2)c(I)cn1[C@H]1C[C@H](O)[C@@H](CO)O1 [XXIIIb, N^4-(1"-morpholinyl)methyl-5-iodo-2'-deoxycytidine hydrate]
half-life [15]: 12.8 ± 0.6 min
solubility at 48 h [10]: 0.029 mM
solubility at 48 h ([10]; ±SD): 0.013 mg/mL
solubility [10]: 20000 µg/mL and 44000 µM

Compound: O=c1nc(NCN2CCCCC2)c(I)cn1[C@H]1C[C@H](O)[C@@H](CO)O1 [XXIIb, N^4-(1"-piperidinyl)methyl-5-iodo-2'-deoxycytidine hydrate]
half-life [15]: 0.89 ± 0.06 min
Solubility, IPM ([10]; ±SD, 2880 min, hydrate): 1.6(0.5) mg/ml(× 10^2)
